Measured values as given in US11578043B2, “Salt of delmopinol” (Lundbeck Pharmaceuticals Italy S.p.A., priority 2017, dated 2023).
Counter-ions that a name gives are not always drawn.

Legend:
[1] = XRPD of the salt before and after DVS (solid state change on exposure to humidity); assay type: physicochemical; conditions: after DVS experiments at 95% RH
Description: The XRPD diffractograms in FIGS. 5 and 6 were obtained using CuKα1 radiation (λ=1.5406 Å). […] The hygroscopicity of delmopinol HCl is reflected in FIG. 4 depicting the DVS diagram obtained at 25° C. by the method described in Example 4. […] These diffractograms were obtained on another instrument.

[2] = Dynamic Vapour Sorption (DVS) experiments; assay type: physicochemical; conditions: DVS at 25° C.; for water / moisture absorbed (change in mass) when humidity is increased to 95%: relative humidity from 30% RH up to 95% RH in steps of 10% RH; for hygroscopicity (in words): up to 95% RH, non-hygroscopic = less than 1.5% moisture absorbed at 95% RH
Description: The DVS experiments depicted in FIGS. 3 and 4 were performed at 25° C. […] In the present context, a “non-hygroscopic” salt of delmopinol indicates a salt wherein less than 1.5% moisture is absorbed when the salt is exposed to 95% RH at 25° C. for example when determined by Dynamic Vapor Sorption (DVS) according to the method of Example 4. Dynamic Vapour Sorption (DVS) experiments were performed for delmopinol HCl and delmopinol citrate using a SMS DVS Advantage 01 changing the relative humidity from 30% RH up to 95% RH in steps of 10% RH.

| Structure (SMILES) | change of solid state caused by exposure to humidity (XRPD after DVS vs non-exposed material) [1] | humidity at which the salt starts absorbing water [2] | water / moisture absorbed (change in mass) when humidity is increased to 95% [2] | hygroscopicity (in words) [2] |
| --- | --- | --- | --- | --- |
| CCCC(CCC)CCCC1COCCN1CCO (stereo not drawn) [delmopinol HCl, 2-(3-(4-propylheptyl)morpholino)ethan-1-ol] | irreversible | below 50 % humidity | about 45% | very hygroscopic |
| CCCC(CCC)CCCC1COCCN1CCO.O=C(O)CC(O)(CC(=O)O)C(=O)O (stereo not drawn) [delmopinol citrate, 2-(3-(4-propylheptyl)morpholino)ethan-1-ol] | – | – | less than 1.5% | non-hygroscopic |
